According to patent US7956040B2, “Combination of catechin and quercetin for pharmaceutical or dietary use” (Giuliani International Limited, priority 2000, dated 2011):

Assays:
platelets [1] = test: Production of hydrogen peroxide in DCFH-DA-loaded platelets stimulated with collagen (flow cytometry); assay type: cell-based, human; details: for production of hydrogen peroxide caused by collagen: catechin or quercetin alone, scalar concentrations (Cat 50 and 100, Q 10 and 20 μmol/L), 10 and 20 mg of collagen/L; for formation of hydrogen peroxide caused by collagen: each compound alone at the low quantities (catechin 25 μmol/L; quercetin 5 μmol/L)
Protocol: (§1) DCFH-DA was added to the PSEC (final concentration: 40 μmol/L); after 15 minutes of incubation with or without catechin or quercetin, the PSEC were activated with collagen. The reaction was stopped with 2 mmol EGTA/L after 1 min. The samples were analysed in a Coulter XL-MCL flow cytometer (Hialeah, Fla.) equipped with an argon laser (emission 480 nm) set up for measuring the logarithmic diffusion of direct light, which is a measure of the dimensions of the particle; logarithmic diffusion of light at 90°, which is a measure of the granularity of the cell; and green fluorescence (DCF) 510-550 nm. The fluorescence signal generated by the probe was expressed as the stimulation index, i.e. intensity of mean channel fluorescence of the stimulated platelets/intensity of mean channel fluorescence of the unstimulated platelets. Platelet aggregation in vitro was evaluated according to Born. The collagen was used at concentrations of 2-4 mg/L.
Flow cytometry makes use of the properties of DCFH-DA, which diffuses rapidly through the cellular membranes and is then trapped inside the cell through a reaction of deacetylation. In the presence of hydrogen peroxide, this compound is oxidized to dichlorofluorescein (DCF), which is highly fluorescent.

phospholipase C = test: Activation of phospholipase C: IP3 production in collagen-stimulated platelets; details: for decrease in IP3 production: 10 mg of collagen/L; for production of [32P]IP3 in platelets stimulated by collagen: catechin or quercetin alone
Protocol: Drug-free human blood obtained from healthy volunteers was coagulated with acid:citrate:dextrose. Platelet-rich plasma was centrifuged at 800×g for 20 min at room temperature and the pellet was suspended in a volume equal to half the initial volume of autologous plasma, low in platelets. The platelet suspensions were incubated for 1 h at 37° C. with 3 μmol of Fura 2/AM per L, 40 μmol DCFH-DA/L, 7.4 GBq (2 Ci) ^32Pi/L, or 3.7 MBq (1 mCi) [^3H]oleic acid/L. The platelets were washed by exclusion chromatography on Sepharose 2B using a Ca^2+-free Tyrodes buffer (134 mmol NaCl/L, 2.9 mmol KCl/L, 0.34 mmol Na2HPO4/L and 2 mmol MgCl2/L) containing 0.2% of bovine serum albumin, 5 mmol glucose/L and 10 mmol HEPES/L, pH 7.35.
The production of 1,3,4-inositol triphosphate (IP3, an indicator of activation of phospholipase C, was analysed 30 s after platelet activation according to Pulcinelli et al. J. Chromatogr. 1992,575:51-5. The collagen was used at a concentration of 10 mg/L, which was the lowest concentration capable of inducing a reproducible response. The platelet suspensions identified with [^3H]oleic acid were used for evaluating platelet adhesion to collagen (50 mg/L) according to Smith and Dangelmaier.

platelets [2] = test: Platelet function / platelet activation, overall conclusion of the study; assay type: cell-based, human; details: individually at 5 μmol of quercetin/L or 20 μmol of catechin/L (so in the source)
platelets [3] = test: Platelet adhesion to collagen ([3H]oleic acid-labelled platelets); assay type: cell-based, human; details: 50 μmol of collagen/L [sic]
Protocol: The activation of platelets by collagen is a multistage process. Thus, after being attached initially to the platelets via the pathways of the second messenger, collagen stimulates the release of thromboxane and ADP, which are important platelet agonists that induce aggregation. To study the adhesion of the platelets to collagen (50 mg/L) without the interference of aggregation and of the activation induced by all the known agonists released by the platelet granules on stimulation by collagen, the platelets were subjected to preincubation with aspirin, a cyclooxygenase inhibitor, with the ADP removal system phosphocreatine and creatine kinase, and with the fibrinogen-fibronectin antagonist RDGS (13).

platelets [4] = test: Platelet aggregation in vitro caused by collagen (according to Born); assay type: cell-based, human; details: for influence on platelet aggregation: 25 μmol of catechin/L or 5 μmol of quercetin/L used on their own; for platelet aggregation caused by collagen: catechin or quercetin alone, two concentrations of collagen (2 and 4 mg/L)
Protocol: as §1, with “The reaction was stopped with 2 mmol EGTA/L after 1 min.” left out

platelets [5] = test: Cytosol platelet Ca2+ concentration / calcium mobilization (Fura 2) after collagen; assay type: cell-based, human; details: for decrease in calcium mobilization: 4 mg of collagen/L; for mobilization of calcium (percentage change in intracellular calcium concentration): catechin or quercetin alone
Protocol: The concentrations of cytosol platelet Ca^2+ were measured using the fluorescent indicator dye Fura 2, according to Grynkiewicz et al.; the changes in fluorescence were then monitored with a fluorimeter SFM 25 (Kontron, Zurich, Switzerland) set at emission wavelength of 510 nm and excitation wavelength of 340 nm.

platelet aggregation = details: high concentrations, several literature studies; cited from earlier work
[6] = 100 μmol catechin/L or 20 μmol quercetin/L
[7] = catechin (50 and 100 μmol/L) or quercetin (10 and 20 μmol/L) on their own

Compound | production of hydrogen peroxide caused by collagen (platelets [1]) | formation of hydrogen peroxide caused by collagen (platelets [1]) | decrease in IP3 production (phospholipase C; 20 μmol of quercetin/L) | production of [32P]IP3 in platelets stimulated by collagen (phospholipase C) | effect on platelet function (platelets [2]) | platelet adhesion to collagen (platelets [3]; [6]) | platelet adhesion to collagen (platelets [3]; [7]) | inhibition of platelet aggregation (platelets [4]; 20 μmol of quercetin/L, 2 mg/L collagen) | inhibition of platelet aggregation (platelets [4]; 20 μmol of quercetin/L, 4 mg/L collagen) | influence on platelet aggregation (platelets [4]) | platelet aggregation caused by collagen (platelets [4]) | decrease in calcium mobilization (platelets [5]; 20 μmol of quercetin/L) | mobilization of calcium (percentage change in intracellular calcium concentration) (platelets [5]) | platelet aggregation in vitro (platelet aggregation) | decrease in IP3 production (phospholipase C; 100 μmol of catechin/L) | inhibition of platelet aggregation (platelets [4]; 100 μmol of catechin/L, 2 mg of collagen/L) | inhibition of platelet aggregation (platelets [4]; 100 μmol of catechin/L, 4 mg of collagen/L) | decrease in calcium mobilization (platelets [5]; 100 μmol of catechin/L)
O=c1c(O)c(-c2ccc(O)c(O)c2)oc2cc(O)cc(O)c12 [quercetin] | inhibited the production of hydrogen peroxide | neither of the two compounds alone at such low quantities is reported to have had any inhibitory effect | 93% | inhibited | no effect on platelet function | suppressed significantly | inhibited platelet adhesion to collagen | 50% | 43% | no influence on platelet aggregation | inhibited platelet aggregation | 65% | inhibited the mobilization of calcium | inhibit platelet aggregation | – | – | – | –
Oc1ccc(C=Cc2cc(O)cc(O)c2)cc1 [resveratrol] | – | – | – | – | – | – | – | – | – | – | – | – | – | inhibit platelet aggregation | – | – | – | –
catechin | inhibited the production of hydrogen peroxide | neither of the two compounds alone at such low quantities is reported to have had any inhibitory effect | – | inhibited | no effect on platelet function | suppressed significantly | inhibited platelet adhesion to collagen | – | – | no influence on platelet aggregation | inhibited platelet aggregation | – | inhibited the mobilization of calcium | inhibit platelet aggregation | 50% | ≈ 75% | ≈ 39% | 71%
